# From patent publication EP2229935A1, “Peptide derivatives or pharmaceutically acceptable salts thereof, method for producing the same, use of said derivatives and pharmaceutical composition” (Nebolsin, Vladimir Evgenievich, priority 1997, dated 1999)
# Counter-ions that a name gives are not always drawn. Like-named read-outs stand apart in the source and are kept apart here. Marks after values point to notes of the source that are not given here.
# How the values were obtained:
# [1] = tested on: hepatic P-450 cytochrome system; assay: Hexenal sleep duration in mice; type: in vivo; conditions: CBF1 mice, oral 3 days, control 25.91 ± 1.57
# Description: Change in Hexenal sleep (HS) duration is the in vivo measurable index of hepatic P-450 cytochrome system condition.
# Studies were carried out on male mice of the lines BALB/c*h75, C57B1/6, CBA, DBA/2, first generation CBF1 and BDF1 hybrides, with initial mass 18-20 g, each group including 10 mice; and on mongrel male guinea pigs with initial mass 250-300 g, each group including 24 animals. All the test compounds (from II to LII) were administered orally in drinking water and for three days at doses 50 and 500 µg/kg. Hexenal hydrochloride at a dose […] of animal mass was administered 24 hours after the last drug administration, except for line BALB/c*h75 mice, which were administered Hexenal at a dose 60 µg/kg at the same terms, and guinea pigs for which Hexenal dose was 30 µg/kg. HS duration was determined in minutes.
# hydroxyl radical = assay: Hydroxyl radical formation in the Fenton reagent (chemiluminescence); type: biochemical
# Description: Active oxygen forms (AOF) of different nature were generated in the following systems: • A. Hydroxyl radical - in the mixture of FeSO4 with H2O2 (the Fenton reagent) [Halliwell B. Superoxide-dependent formation of hydroxyl radicals in the presence of iron salts. […] Incubation medium comprised 5 mM KH2PO4 (pH 7.4); 5 mM FeSO4; 2 mM luminol. H2O2 at final concentration 5 mM was introduced into a cuvette through a dispencer following background luminescence recording of the reagents' mixture. 5 to 10 ml of the test compounds dissolved in water were at needed concentration introduced into a cuvette.
# CL flash recording duration after mixing ingredients, depended on a particular process kinetics. For each system, CL light sum (mV) was determined in the control samples without preparations (I-) and in samples comprising respective concentrations of preparations (I+). To estimate CL inhibition (activation) degree, the I+/I- ratio (in relative units) was found in the studied systems.
# When H2O2 was introduced into phosphate buffer comprising iron sulfate, CL flash occured which was caused by formation of predominantly hydroxyl radical in the reaction mixture.
# superoxide anion-radical = assay: Superoxide anion-radical formation in the xantine-xantine oxidase system (chemiluminescence); type: biochemical
# Description: Effect of the compounds of general formula (I) on change in chemiluminescence (CL) determined by hydroxyl radical ( OH) and superoxide anion-radical (O2-), in the model chemical and enzymatic systems.
# 5 to 10 ml of the test compounds dissolved in water were at needed concentration introduced into a cuvette. A total sample volume was 0.5 ml. • B. Superoxide anion-radical in the mixture of xantine and xantine oxidase [Afanas'ev I., Suslova T., Cheremisina Z. et al. Study of antioxidant properties of metal aspartates.
# Incubation medium comprised 5 mM KH2PO4; 0.2 IU/ml xantine oxidase. Xantine at concentration 1 mM was introduced into sample through a dispencer. Luceginine (0.2 mM) was used in this system as luminiscence sensitizer.
# CL signal indication was performed by its integration every 10 seconds for 5 minutes. CL flash recording duration after mixing ingredients, depended on a particular process kinetics. For each system, CL light sum (mV) was determined in the control samples without preparations (I-) and in samples comprising respective concentrations of preparations (I+). To estimate CL inhibition (activation) degree, the I+/I- ratio (in relative units) was found in the studied systems.
# AOF formation and effect of the test compounds on this process were recorded on the Luminometer-1251 instrument (LKB, Sweden).
# Because of such "distension" of the kinetic curve, chemiluminescence light sum was recorded during the first 3-5 minutes which reflected a total amount of light quantums produced in the system till achieving the maximum CL intensity values.
# [2] = tested on: Lewis pulmonary carcinoma (LLC); assay: Lewis pulmonary carcinoma spontaneous metastasizing, oral administration; type: in vivo; conditions: BDF1 female mice with LLC, oral 24 days; for Mean number of metastases: day 25
# Description: Each group included 15 animals. 0.3 ml of LLC tumor tissue suspension was intramuscularly injected to mice. Henks solution was used as a solvent. […] Moscow (1992) 13 pp.]. […]
# [3] = tested on: Strain Aichi of type A human influenza virus; type: in vivo; conditions: for MLT, days: series with Control - 2 (9.1), 3 days before and 10 days following infection; for Survival rate in percent: series with Control - 2 (34.5); for Protection degree in percent: series with Control - 2
# [4] = tested on: Isolate HIV-1/IV17 of type 1 human immunodeficiency virus; assay: Viability of MT-4 cells acutely infected with HIV-1; type: cell-based; conditions: Human immunodeficiency virus 1, MT4, 168 h, day 7, series 2 (infected cells 24, non-infected 88), read-out: Viability of cells in percent
# Description: Study was carried out on the culture of human lymphoblastoid cells MT-4. Isolate HIV-1/IV17 of type 1 human immunodeficiency virus from the collection of the D.I.Ivanovsky Institute for Virology was used in experiment. The test compounds of general formula (I): III, VI, VII were introduced into cellular culture at concentrations 1.0; 0.1 and 0.01 µg/ml. The reference drug Azidothymidine was introduced at a dose 0.05 µM/ml. The compounds were introduced into the culture of MT-4 cells at a dose 1000 TCD50 one hour prior to virus introduction. Viability of MT-4 cells was estimated by day 7 of experiment.
# Viability of cells was the main efficacy parameter of the test compounds.
# peritoneal macrophages = assay: Activity of peritoneal macrophages (NBT reduction test); type: in vivo, mongrel white male mice
# Description: Change in the activity of peritoneal macrophages (PM) as effected by the test compounds was studied.
# Experiments were carried out on mongrel white male mice with initial body mass 20-22 g. Each group included 10 animals. Compounds III, VI, XLIV were dissolved in normal saline (NS). The test compounds were administered to animals orally for three days at doses 50 and 500 µg/kg. Animals of the control group were given equal volume of NS. Mice were sacrified 20 hours after the last compound administration, peritoneal cavity was washed with 1.5 ml Henks solution comprising 5 U/ml heparine. 0.1 ml of wash solution were incubated for 30 minutes at 37°C with 0.1 ml 0.2% nitroblue tetrasolium (NBT) solution, then smears were prepared. Nuclei were additionaly stained with o.1% neutral red solution. Results were expressed in percent of active cells [Klimov V.V., Kolovkina T.V. Nitroblue tetrasolium reduction test stimulated with pyrogenal. Laborotornoye delo (Laboratory matter) (1982), No 10, pp. 624-625]. […]
# mongrel male rats [5] = conditions: po, 96 h
# mongrel male rats [6] = assay: Hypolipidemic activity: experimental hyperlipidemia (atherogenic load); conditions: atherogenic diet, oral last four days; for HDL-CS / Total CS / Triglycerides: blood; for Kcs: cholesterol index;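 for all read-outs here: serum drawn 18 h after the final dose from rats deprived of food over that interval, groups of 10 animals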
# mongrel male mice = assay: Delayed hypersensitivity induced by picryl chloride (TCB), local ointment; type: in vivo; conditions: mice, TCB
# Description: Effect study of the compounds on the delayed type hypersensitivity reaction induced in mice by 2.4.6-trichlorobenzol (TCB) was carried out according to the method of Tarayre et al. [Tarayre J.P., Barbara M., Aliaga M., Tisne-Versilles. Comparative actions of immunosuppressants, glucocorticoids and non-steroidal antiinflammatory drugs on various models of delayed hypersensitivity and on a non-immune inflammation in mice. Arzneim.-Forsch. Drug Res. (1990), Vol. 40, pip.1125-1131].
# Studies were conducted on mongrel male mice with initial body mass 30-35 g. Each group included 10 animals. Mice were sensitized with 0.1 ml 3% TCB solution in acetone application on a shaved abdominal area. In 7 days, the anaphylaxis-provoking TCB dose (0.025 ml of 3% solution) was applied on both surfaces of the right ear. In 30 minutes 0.05 ml of the test ointment were rubbed into the same surfaces. 24 hours after edema induction, mice were sacrified, ears were cut off and weighed. Allergic reaction intensity was assessed by change in weight in grams of the right ear (the test one) in relation to the left ear (the control ear).
# Allergic reaction inhibition expressed in percent was calculated according to the formula: 100-[(R-L(exper.))/(L):(R-L(control))/(L)x100](%) [formula] where R - the right ear weight, L - the left ear weight.
# The test compounds were applied on the ear in the form of 1% and 5% ointment the base of which were 10% methylcellulose solution and propylene glycol at 1:1 ratio.
# Groups of animals: • Group 1 - control, ointment base without active substance was applied on the ear of animals. • Group 2 - ointment base comprising 1% compound III was applied on the ear of animals. • Group 3 - ointment base comprising 1% compound XVII was applied on the ear of animals. • Group 4 - ointment base comprising 5% compound XLVIII was applied on the ear of animals.
# [7] = tested on: Lewis pulmonary carcinoma (LLC); assay: Lewis pulmonary carcinoma growth; type: in vivo; conditions: mice with LLC, day 12
# Description: Experiments were carried out on male mice with initial body mass 18-20 g. Each group included 10 animals. […] Administration of compounds II, III, IX, X, XII, XIV, XV, XVI, XVII, XIX, XXII, XLVII in drinking water was commenced 24 hours following transplantation and continued till the end of experiment. Effect of the compounds on Lewis rat pulmonary carcinoma (LLC) was estimated by day 12 of experiment by change in tumor volume expressed in mm^3.
# [8] = 0.01 mM, control of the series as in the table
# [9] = 0.1 mM, control of the series as in the table
# [10] = 1 mM, control of the series 7839 ± 171, 1120 ± 163, 4974 ± 283 or 1332 ± 172
# [11] = 1 mM, control of the series 5616 ± 173, 5391 ± 195, 7290 ± 128 or 6776 ± 150
structure (smiles),measurement,setting,value
"CC(=O)N[C@@H](CCC(=O)NCCc1c[nH]cn1)C(=O)O [VI, N -ACETHYL-γ-L-GLUTAMYLHISTAMINE]",Hexenal sleep duration (minutes),[1]; 50 µg/kg,16.86 ± 1.38*** minutes
same,Hexenal sleep duration (minutes),[1]; 500 µg/kg,14.39 ± 1.73*** minutes
same,Chemiluminiscence intensity (mV) + σn-1,hydroxyl radical; [8],5014 ± 186 mV
same,relative effect: I+/I-,hydroxyl radical; 0.1 mM,0.63
same,Chemiluminiscence intensity (mV) + σn-1,hydroxyl radical; [9],3110 ± 210 mV
same,relative effect: I+/I-,hydroxyl radical; 1 mM,0.05
same,Chemiluminiscence intensity (mV) + σn-1,hydroxyl radical; [10],257 ± 74 mV
same,Chemiluminiscence intensity (mV) + σn-1,superoxide anion-radical; [8],7295 ± 106 mV
same,relative effect: 1+/I-,superoxide anion-radical; 0.1 mM,0.76
same,Chemiluminiscence intensity (mV) + σn-1,superoxide anion-radical; [9],5518 ± 131 mV
same,relative effect: 1+/I-,superoxide anion-radical; 1 mM,0.12
same,Chemiluminiscence intensity (mV) + σn-1,superoxide anion-radical; [11],902 ± 15 mV
same,Mean number of metastases,[2]; 50 µg/kg,35.5 ± 4.5*^2
same,Mean number of metastases,[2]; 500 µg/kg,39.0 ± 14.0
same,Metastasizing inhibition percent,[2]; 50 µg/kg,24.0%
same,Metastasizing inhibition percent,[2]; 500 µg/kg,17.0%
same,"MLT, days",[3]; 50 µg/kg orally,11.24*^2 days
same,"MLT, days",[3]; 500 µg/kg orally,11.62*^2 days
same,Survival rate in percent,[3]; 50 µg/kg orally,73.3*^2%
same,Survival rate in percent,[3]; 500 µg/kg orally,79.3*^2%
same,Protection degree in percent,[3]; 50 µg/kg orally,38.8%
same,Protection degree in percent,[3]; 500 µg/kg orally,44.8%
same,viability at 0.01 µg/mL,[4],45%
same,viability at 0.1 µg/mL,[4],49%
same,viability at 1 µg/mL,[4],54%
same,portion of active macrophages,"peritoneal macrophages; mice, oral three days at 50 and 500 µg/kg",at a dose 50 µg/kg
same,"Activity of macrophages, percent","peritoneal macrophages; score 0 (no formazane inclusions, inactive PM), 50 µg/kg orally for three days",17.9 ± 1.4%
same,"Activity of macrophages, percent","peritoneal macrophages; score 0 (no formazane inclusions, inactive PM), 500 µg/kg orally for three days",20.3 ± 3.4%
same,"Activity of macrophages, percent","peritoneal macrophages; score 1 (single formazane inclusions), 50 µg/kg orally for three days",30.9 ± 3.0%
same,"Activity of macrophages, percent","peritoneal macrophages; score 1 (single formazane inclusions), 500 µg/kg orally for three days",37.9 ± 3.1%
same,"Activity of macrophages, percent","peritoneal macrophages; score 2 (inclusions fill up to 1/3 of PM cytoplasm), 50 µg/kg orally for three days",40.3 ± 2.1%
same,"Activity of macrophages, percent","peritoneal macrophages; score 2 (inclusions fill up to 1/3 of PM cytoplasm), 500 µg/kg orally for three days",34.0 ± 4.0%
same,"Activity of macrophages, percent","peritoneal macrophages; score 3 (inclusions fill up to 1/2 of PM cytoplasm), 50 µg/kg orally for three days",10.4 ± 1.9%
same,"Activity of macrophages, percent","peritoneal macrophages; score 3 (inclusions fill up to 1/2 of PM cytoplasm), 500 µg/kg orally for three days",7.1 ± 2.0%
same,LDL-CS+ VLDL-CS,mongrel male rats [5]; 0.05 mg/kg,"50,3±5,5**^A"
same,LDL-CS+ VLDL-CS,mongrel male rats [5]; 0.5 mg/kg,"25,0±1,6***^A"
same,HDL-CS,mongrel male rats [6]; 50 µg/kg,"35,7±5,6*^A"
same,Total CS,mongrel male rats [6]; 50 µg/kg,"86,0±5,2"
same,Triglycerides,mongrel male rats [6]; 50 µg/kg,"141,2±16,1***^A"
same,HDL-CS,mongrel male rats [6]; 500 µg/kg,"45,8±3,5***^A"
same,Total CS,mongrel male rats [6]; 500 µg/kg,"70,8±3,7***^A"
same,Triglycerides,mongrel male rats [6]; 500 µg/kg,"127,2+7,1***^A"
same,Kcs,mongrel male rats [6]; 50 µg/kg,"1,41±0,16***^A"
same,Kcs,mongrel male rats [6]; 500 µg/kg,"0,55±0,04***^A"
"COC(=O)[C@H](Cc1c[nH]cn1)NC(=O)CC[C@H](N)C(=O)O [compound VII, γ -L-GLUTAMYL-HISTIDINE METHYL ETHER DIHYDROCHLORIDE]",Hexenal sleep duration (minutes),[1]; 50 µg/kg,17.62 ± 0.96* minutes
same,Hexenal sleep duration (minutes),[1]; 500 µg/kg,16.99 ± 1.33* minutes
same,Chemiluminiscence intensity (mV) + σn-1,hydroxyl radical; [9],1158 ± 102 mV
same,relative effect: I+/I-,hydroxyl radical; 1 mM,0.15
same,Chemiluminiscence intensity (mV) + σn-1,hydroxyl radical; [10],165 ± 7 mV
same,relative effect: 1+/I-,superoxide anion-radical; 0.01 mM,0.91
same,Chemiluminiscence intensity (mV) + σn-1,superoxide anion-radical; [8],5082 ± 278 mV
same,relative effect: 1+/I-,superoxide anion-radical; 0.1 mM,0.72
same,Chemiluminiscence intensity (mV) + σn-1,superoxide anion-radical; [9],4050 ± 291 mV
same,relative effect: 1+/I-,superoxide anion-radical; 1 mM,0.20
same,Chemiluminiscence intensity (mV) + σn-1,superoxide anion-radical; [11],1114 ± 51 mV
same,"increase in MLT, survival rate and protection degree","[3]; mice, influenza virus, 500 µg/kg",most manifested
same,viability at 0.01 µg/mL,[4],34%
same,viability at 0.1 µg/mL,[4],49%
same,viability at 1 µg/mL,[4],51%
same,LDL-CS+ VLDL-CS,mongrel male rats [5]; 0.05 mg/kg,"46,3±3,2**^A"
same,LDL-CS+ VLDL-CS,mongrel male rats [5]; 0.5 mg/kg,"55,8±3,9**^A"
same,HDL-CS,mongrel male rats [6]; 50 µg/kg,"26,0±1,9"
same,Total CS,mongrel male rats [6]; 50 µg/kg,"72,3±4,9**^A"
same,Triglycerides,mongrel male rats [6]; 50 µg/kg,"250,6±12,0"
same,HDL-CS,mongrel male rats [6]; 500 µg/kg,"22,3±2,2"
same,Total CS,mongrel male rats [6]; 500 µg/kg,"78,1±3,3"
same,Triglycerides,mongrel male rats [6]; 500 µg/kg,"251,4±12,71"
same,Kcs,mongrel male rats [6]; 50 µg/kg,"1,78±0,12***^A"
same,Kcs,mongrel male rats [6]; 500 µg/kg,"2,5±0,17**^A"
"O=C(O)CCCC(=O)NCCc1c[nH]c2ccccc12 [compound XVII, N-GLUTARYLTRYPTAMINE]",Reaction inhibition (%),mongrel male mice; 1% ointment,24%
same,weight increment,mongrel male mice; 1% ointment,6.1 ± 0.59 g
same,Weight of years (g) Right,"mongrel male mice; 1% ointment on right ear 30 minutes after challenge, 24 hours",21.6 ± 1.02 g
same,Weight of years (g) left,mongrel male mice; left (control) ear of animals given 1% ointment,15.5 ± 1.02 g
same,Growth inhibition percent,[7]; compound in drinking water,48%
same,Tumor volume (mm^3),[7]; compound in drinking water from 24 hours after transplantation,1367 ± 233** mm^3
